# In patent publication US11319289B2, “5-hydroxy pyridine-based compound for use as P2X1 and P2X3 receptor antagonist and pharmaceutical composition comprising same” (GWANGJU INSTITUTE OF SCIENCE AND TECHNOLOGY, priority 2017, dated 2022):
# “Also recorded” adds a separate entry of the source.
# How the values were obtained:
# [1] = Metabolic stability in microsomes, human; assay type: in vitro ADME; conditions: 30 min
# [2] = target: T1, human P2X3 receptor (hP2X3) (Homo sapiens, UniProt P56373); assay: Two-electrode voltage clamp assay, recombinant hP2X3 receptor in Xenopus oocytes; assay type: cell-based; conditions: for IC50: 2 μM ATP-evoked current, Xenopus oocytes, mean±SEM n≥3 (footnote d)
# T1 construct: expressed in transfected cells; host or cells: Xenopus oocytes (cRNA microinjection)
# T1 sequence (P56373 1-397): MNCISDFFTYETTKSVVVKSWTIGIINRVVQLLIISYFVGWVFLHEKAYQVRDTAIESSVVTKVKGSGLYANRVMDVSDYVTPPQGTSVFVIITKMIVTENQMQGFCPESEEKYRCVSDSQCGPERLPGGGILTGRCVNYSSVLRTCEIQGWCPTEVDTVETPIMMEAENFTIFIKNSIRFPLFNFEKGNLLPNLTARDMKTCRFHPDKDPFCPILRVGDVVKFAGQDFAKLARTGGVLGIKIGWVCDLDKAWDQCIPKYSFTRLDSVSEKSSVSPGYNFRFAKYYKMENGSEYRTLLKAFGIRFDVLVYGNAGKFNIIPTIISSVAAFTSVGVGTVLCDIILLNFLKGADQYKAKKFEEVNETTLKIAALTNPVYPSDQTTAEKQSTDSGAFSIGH
# Protocol: 1-1. Two-Electrode Voltage Clamp Assay for Recombinant mP2X1 and hP2X3 Receptors
# Xenopus oocytes were isolated and incubated with 270 U/mg of collagenase at 23 to 24° C. for 1.5 hours. Defolliculated oocytes were kept in Barth's solution at 18° C. After 1 day, the defolliculated oocytes were each microinjected cytosolically with mP2X1 and human P2X3 receptor cRNA ([…], 1 μg/mL), incubated for 24 hours at 18° C. in Barth's solution. The cRNA-injected oocytes were kept for 12 days at 4° C. ATP-activated membrane currents (Vh=−70 mV) were recorded from the cRNA-injected oocytes using the two-electrode voltage clamp technique (Axoclamp 2B amplifier). Voltage recording ([…] tip resistance) and current-recording microelectrodes (5 MΩ tip resistance) were filled with 3.0 M KCl. Oocytes were placed in an electrophysiological chamber continuously superfused with Ringer's solution (5 mL/min, at 18° C.) containing 110 mM NaCl, 2.5 mM KCl, 5 mM HEPES and 1.8 mM BaCl2, with pH adjusted to 7.5. To induce an evoked current, 2 μM ATP was superfused for 60 to 120 seconds and then washed for 20 min. For data analysis, the ATP-evoked current was normalized at pH 7.5. The compounds were introduced to the fixed oocytes 20 minutes prior to ATP exposure in the electrophysiological chamber. IC50 values (the concentration of the compound required to inhibit the ATP response by 50%) were determined by Hill plots designed using the Chemical Formula: log(I/Imax−1), where I is the current evoked by ATP in the presence of an antagonist. Data are presented as mean±SEM (n≥3) from different batches of oocytes.
# In order to investigate the structure-activity relationship (SAR) of the compounds synthesized in the present invention, the antagonistic activity was evaluated by a two-electrode voltage clamp (TEVC) assay in Xenopus oocytes expressing the recombinant mP2X1 or hP2X3, respectively. The hP2X7R antagonistic activity was assessed using an ethidium ion accumulation assay in human HEK293 cells stably expressing the recombinant human P2X7R.
# [3] = test system: neuropathic pain (NeP) animal models; assay: Efficacy in neuropathic pain (NeP) animal models, model not specified; assay type: in vivo, rat
# Protocol: 3-1. Evaluation of In Vivo Efficacy
# The antiallodynic effects (mechanical allodynia) were evaluated using rats according to a previously reported protocol. In order to evaluate the withdrawal threshold, rats (naive, SNL and CIPN) were placed on a plastic mesh floor of individual plastic cages. The rats were allowed to acclimate to the environment for 30 minutes and examined after intrathecal or intravenous administration to the caudal vein. The control group received the same volume of vehicle (intrathecal administration of saline or DMSO, intravenous administration of DMSO:PEG:PBS=1:6:3 v/v %) as the experimental groups. Evaluation of the mechanical withdrawal threshold was measured in responses to the application of calibrated von Frey filaments (Stoelting, Wood Dale, Ill., USA) to the hind paw of the rats through the holes on the mesh floor underneath the cage using the ‘up and down method’. A series of eight von Frey filaments (0.4, 0.7, 1.2, 2.0, 3.6, 5.5, 8.5, and 15 g) was applied perpendicular to the sole of the hind paw for 5 seconds while the head was bent. Active withdrawal or flinching of the paw was considered as a positive reaction. The absence of response in the rats, when a pressure was applied to 15 g von Frey filament, was used as a cut-off value. Only rats with definite allodynia (i.e., mechanical withdrawal threshold: less than 4 g after SNL or less than 5 g after CIPN) were tested. The rats after termination of the experiments were euthanized through an overdose of sevoflurane. The withdrawal threshold data for the von Frey filament test was calculated as % MPE (maximum possible effect) based on the following Calculation Equation: % MPE=[(Post-drug threshold−Post-injured baseline threshold)/(Cutoff threshold−post-injured baseline threshold)×100]. Dose-response data were analyzed using Scheffe's post hoc test and one-way analysis of variance (ANOVA).
Structure (SMILES),"Metabolic stability, microsomes, Human [1]",IC50 [2],"antiallodynic effect upon intraperitoneal and intravenous administration ([3]; NeP animal models, i.p. and i.v.)",antiallodynic effect upon intramedullary administration ([3]; NeP rats),selectivity for hP2X3R to mP2X1R ([2]; hP2X3R versus mP2X1R),in vivo efficacy in early animal experiments ([3]; early animal experiments)
"CCCc1nc(Cc2cccc(Oc3ccccc3)c2)c(C)c(C(=O)OC)c1O [Compound 28, Methyl 3-hydroxy-5-methyl-6-(3-phenoxybenzyl)-2-propylisonicotinate]",0 % remaining after 30 min,–,–,–,–,–
"CCCc1nc(Cc2cccc(Oc3ccccc3)c2)c(C)c(C(=O)O)c1O [Compound 29, 3-Hydroxy-5-methyl-6-(3-phenoxybenzyl)-2-propylisonicotinic acid]",3 % remaining after 30 min,245 nM,no antiallodynic effect; also recorded: no pharmacological activity was observed; also recorded: did not provide an antiallodynic effect,potent antiallodynic effect,–,–
"CCCc1nc(CCc2ccc(OC)cc2)c(C(=O)O)c(C(=O)O)c1O [Compound 13d, 5-Hydroxy-2-(4-methoxyphenethyl)-6-propylpyridine-3,4-dicarboxylic acid]",–,93 nM,–,–,about 100 fold,weak in vivo efficacy
